From patent publication US10100046B2, “Inhibitors of lysine specific demethylase-1” (Celgene Quanticel Research, Inc., priority 2014, dated 2018)

Experiments:
THP-1 (AML) cells = assay: LSD1 CD11b Cellular Assay (flow cytometry); assay type: cell-based; conditions: Homo sapiens, 96 h; CD11b expression in THP-1 cells, 4 days
Protocol: To analyze LSD1 inhibitor efficacy in cells, a CD11b flow cytometry assay was performed. LSD1 inhibition induces CD11b expression in THP-1 (AML) cells which can be measured by flow cytometry. […] LSD1 test compounds were serially diluted in DMSO. The dilutions were added to each well accordingly to a final concentration of 0.2% DMSO. The cells were incubated at 37 degrees Celsius in 5% CO2 for 4 days. 250 μL of each well was transferred to a well in a 96 well round bottom plate. The plate was centrifuged at 1200 rpm at 4 degrees Celsius in a Beckman Coulter Alegra 6KR centrifuge for 5 minutes. The media was removed leaving the cells at the bottom of the wells. The cells were washed in 100 μL cold HBSS (Hank's Balanced Salt Solution) plus 2% BSA (Bovine Serum Albumin) solution and centrifuged at 1200 rpm at 4 degrees Celsius for 5 minutes. The wash was removed. […] The cells were centrifuged and washed two times in 100 μl HBSS plus 2% BSA. After the final spin the cells were resuspended in 100 μL HBSS plus 2% BSA containing 1 ug/mL DAPI (4′,6-diamidino-2-phenylindole). The cells were then analyzed by flow cytometry in a BD FACSAria machine. Cells were analyzed for CD11b expression. The percent of CD11b expressing cells for each inhibitor concentration was used to determine an IC50 curve for each compound analyzed.

full-length human LSD1 = full-length human LSD1 (Homo sapiens (Human), UniProt O60341); assay: In Vitro Enzyme Inhibition Assay—LSD-1 (TR-FRET); assay type: biochemical; conditions: H3K4me1-biotin labeled peptide
Protocol: This assay determines the ability of a test compound to inhibit LSD1 demethylase activity. E. coli expressed full-length human LSD1 (Accession number 060341) was purchased from Active Motif (Cat#31334).
The enzymatic assay of LSD1 activity is based on Time Resolved-Fluorescence Resonance Energy Transfer (TR-FRET) detection. The inhibitory properties of compounds to LSD1 were determined in 384-well plate format under the following reaction conditions: 0.1-0.5 nM LSD1, 50 nM H3K4me1-biotin labeled peptide (Anaspec cat #64355), 2 μM FAD in assay buffer of 50 mM HEPES, pH7.3, 10 mM NaCl, 0.005% Brij35, 0.5 mM TCEP, 0.2 mg/ml BSA. Reaction product was determined quantitatively by TR-FRET after the addition of detection reagent Phycolink Streptavidin-allophycocyanin (Prozyme) and Europium-anti-unmodified histone H3 lysine 4 (H3K4) antibody (PerkinElmer) in the presence of LSD1 inhibitor such as 1.8 mM of Tranylcypromine hydrochloride (2-PCPA) in LANCE detection buffer (PerkinElmer) to final concentration of 12.5 nM and 0.25 nM respectively.
The assay reaction was performed according to the following procedure: 2 μL of the mixture of 150 nM H3K4me1-biotin labeled peptide with 2 μL of 11-point serial diluted test compound in 3% DMSO were added to each well of plate, followed by the addition of 2 μL of 0.3 nM LSD1 and 6 μM of FAD to initiate the reaction. The reaction mixture was then incubated at room temperature for one hour, and terminated by the addition of 6 μL of 1.8 mM 2-PCPA in LANCE detection buffer containing 25 nM Phycolink Streptavidin-allophycocyanin and 0.5 nM Europium-anti-unmodified H3K4 antibody. Enzymatic reaction is terminated within 15 minutes if 0.5 LSD1 enzyme is used in the plate. Plates were read by EnVision Multilabel Reader in TR-FRET mode (excitation at 320 nm, emission at 615 nm and 665 nm) after 1 hour incubation at room temperature. A ratio was calculated (665/615) for each well and fitted to determine inhibition constant (IC50).
The ability of the compounds disclosed herein to inhibit LSD1 activity was quantified and the respective IC50 value was determined. Table 3 provides the IC50 values of various substituted heterocyclic compounds disclosed herein.

Compound | IC50 (THP-1 (AML) cells) [nM] | IC50 (full-length human LSD1) [nM]
Cn1ncc2cc(-c3sc(N4CCC5NCCC5C4)nc3-c3ccc(C#N)cc3)ccc21 (stereo not drawn) [Example 6] | < 100 | ≤ 100
N#Cc1ccc(-c2nc(N3CCC4(CCNC4)CC3)cc(=O)n2-c2ccc(C3CC3)cc2)cc1F [Example 29, 4-[1-(4-cyclopropylphenyl)-4-(2,8-diazaspiro[4.5]decan-8-yl)-6-oxopyrimidin-2-yl]-2-fluorobenzonitrile] | < 100 | ≤ 100
Cn1cnc2cc(-c3sc(C(=O)N4CCC(N)CC4)nc3-c3ccc(C#N)cc3)ccc21 [Example 18, 4-[2-(4-aminopiperidine-1-carbonyl)-5-(1-methyl-1H-1,3-benzodiazol-5-yl)-1,3-thiazol-4-yl]benzonitrile] | < 100 | ≤ 100
N#Cc1ccc(-c2nc(N3CC[C@@H]4CNC[C@@H]4CC3)sc2-c2cnn(CC3CC3)c2)cc1 [Example 15, 4-{5-[1-(cyclopropylmethyl)-1H-pyrazol-4-yl]-2-{decahydropyrrolo[3,4-d]azepin-6-yl}-1,3-thiazol-4-yl}benzonitrile] | 100 to 1000 | ≤ 100
N#Cc1ccc(-c2nc(N3CCC(N)CC3)sc2-c2cnn(CC(F)(F)F)c2)cc1 [Example 12, 4-[2-(4-aminopiperidin-1-yl)-5-[1-(2,2,2-trifluoroethyl)-1H-pyrazol-4-yl]-1,3-thiazol-4-yl]benzonitrile] | < 100 | ≤ 100
N#Cc1ccc(-c2nc(N3CCC(N)CC3)sc2-c2cnn(CC3CC3)c2)cc1 [Example 14, 4-[2-(4-aminopiperidin-1-yl)-5-[1-(cyclopropylmethyl)-1H-pyrazol-4-yl]-1,3-thiazol-4-yl]benzonitrile] | 100 to 1000 | ≤ 100
